This passage reports melting point results from a melting point compilation (Tetko et al.; mined from patent text by program, amines drawn as free bases though some values may be those of a salt).

The melting point is the temperature, or range, at which the solid turns liquid.

On to `CC(=O)Oc1ccc(Cl)cc1C(=O)O`, for which the melting point was in the range of 146 to 148 °C.

Take `C=C(C)CN(CC)c1nc(N2CCN(C(=O)NC(c3ccccc3)c3ccccc3)CC2)nc(N(CC)CC(=C)C)n1`: the melting point lay within 178 to 180 °C.

Regarding `N#Cc1ccc(CBr)c(Cl)c1`, the melting point was 83 to 85 °C.

`CC1CC=CC2C(=O)OC(=O)C12` (stereo unspecified) returned a melting point of 55 °C.

Consider `CCOC(=O)c1cnn(-c2cccc(N(C)C)n2)c1S(N)(=O)=O`, for which the melting point was in the range of 157 to 160 °C.

`CN1CCN(C2=Nc3ccccc3N3CCc4cc(Cl)cc2c43)CC1` displayed a melting point of 182 to 183 °C.

Regarding `CCOC(=O)C=Cc1ccc(C=Cc2ccc(C=CC(=O)O)cc2)cc1`, the melting point was in the range of 245 to 248 °C.

Consider `CCCCc1c2c(nn1-c1ccccc1)c(Cl)nc1ccccc12`, for which the melting point is 239 to 243 °C.

`Cn1c(CCCO)nc2cccnc21` showed a melting point of over 300 °C.

In turn, `CCCCn1cnc2c(SCc3ccc4nsc(Br)c4c3)ncnc21` came in with a melting point of 118 to 119 °C.

`O=C(NCC1CC1)c1c(NC(=O)c2cc(C(F)(F)F)nn2-c2ncccc2Cl)c(Br)cc2cn[nH]c12` returned a melting point of 144 to 150 °C.

`Cc1c(Cc2nc3n(-c4c(Cl)cc(Cl)cc4Cl)[nH]c(C(C)C)c-3c(=O)n2)cccc1NC(=O)CCl` came in with a melting point of 237 to 238 °C.

`O=C1Nc2cccc(Br)c2C(=O)N2CCC[C@@H]12` returned a melting point of 221 to 224 °C.

Regarding `COCCOc1ccc(C=O)c(O)c1`, the melting point lay in the range of 64.5 to 65.5 °C.

Compound `NC(Cc1ccccc1)C(O)C(N)Cc1ccccc1` (stereo unspecified) gave a melting point of 106 to 107 °C.

`CC(=O)NC[C@H]1CN(c2ccc(N3CCC(O)(C[N+](=O)[O-])CC3)c(F)c2)C(=O)O1` came in with a melting point of 186 to 187 °C.

Turning to `O=C(CCc1nc(CCl)no1)c1ccc(-c2ccccc2)cc1`, the melting point fell in the range of 153 to 154 °C.

`CS(=O)(=O)OCc1cn(-c2ccc(N3CCOCC3)c(F)c2)nn1` yielded a melting point of 158 °C.

For `COc1ncc(NS(=O)(=O)c2cccc(Cl)c2Cl)c(OC)n1`, the melting point lay within 124 to 126 °C.

Take `CCCCc1nn(-c2cc([N+](=O)[O-])ccc2Cl)c(C(N)=O)c1Cc1ccc(Br)cc1F`: the melting point lay in the range of 145 to 147 °C.

Regarding `CC(C)(C)C#Cc1cc(Cl)cc2c1OC(C(F)(F)F)C(C(=O)O)=C2` (stereo unspecified), the melting point lay within 218 to 222 °C.

Compound `CC(=O)N(C(C)=O)c1c(C#N)cnn1-c1c(F)cc(F)c(F)c1F` yielded a melting point of 132 to 134 °C.

Regarding `CCc1ccc(-c2ccc(C(=O)Nc3ccc4cc(CN5CCCC5)cnc4c3C)c(F)c2)cc1`, the melting point was 178 to 179 °C.

Regarding `Cc1c(N)c2c(c3c1C(c1ccc(C(C)C)cc1)CO3)CCC2` (stereo unspecified), the melting point fell in the range of 112 to 113 °C.

`CCN(CC)CCNC(=O)c1cc(C#N)c(Cl)cc1OC` registered a melting point of 104 to 105 °C.

Compound `Nc1nc(=O)[nH]c2cccnc12` registered a melting point of over 300 °C.

Regarding `CCOC(=O)c1c(O)c2ccc(F)cc2c(=O)n1CC(C)(C)C`, the melting point lay within 92 to 93 °C.

With `CCCC1=NN(c2ccc(S(=O)(=O)O)cc2)C(=O)C1=CNc1ccccc1CC`, the melting point came to 205 °C.

Consider `CC1CC(C)CN(CCNC(=O)Nc2ccccc2)C1` (stereo unspecified), for which the melting point fell in the range of 189 to 191 °C.

For `O=C1CC2(C(=O)N1)C(=O)N(Cc1ccc(Br)cc1F)C(=O)c1ccccc12` (stereo unspecified), the melting point fell in the range of 112 to 114 °C.

`Nc1nc(N)c2c(ccc3[nH]c(-c4ccccc4)cc32)n1` registered a melting point of 322 to 323 °C.

Compound `O=C(NCCc1c(Cl)cccc1Cl)c1c(Cl)ccc2nc(N3CCC(C(=O)O)CC3)ccc12` yielded a melting point of 262 to 264 °C.

The compound `CCC(=O)C(CCCCCCOc1ccc(S(N)(=O)=O)cc1)C(=O)CC` registered a melting point of 86 to 87 °C.

In turn, `CCN1CCN(Cc2ccc3c(c2)-c2[nH]nc(-c4ccsc4)c2C3)CC1` yielded a melting point of 221 to 223 °C.

The compound `Cc1c(N2C(=O)C[C@H](O)[C@@H]2C)ccc(C#N)c1Cl` gave a melting point of 172 to 173 °C.

Turning to `CN(C)c1nc(Cl)nc(N2CCOCC2)n1`, the melting point fell in the range of 96 to 97 °C.

As for `CC1CC(C(=O)Nc2ccccc2)(C(=O)OC(C)(C)C)N(C(=O)CNC(=O)Nc2cccc(C(=O)O)c2)C1c1ccccc1` (stereo unspecified), the melting point stood at 238 °C.

The compound `Cn1c2ccccc2c(=O)n2nc(C(N)=O)cc12` had a melting point of 327 to 330 °C.

Regarding `COc1ccc(S(N)(=O)=O)cc1C(O)CCl` (stereo unspecified), the melting point was found to be 112 °C.

`CCCCS(=O)c1ccc(C#N)nc1` (stereo unspecified): the melting point is 54 to 55 °C.

`CC(C(N)=O)c1ccc(Oc2ccccc2F)cc1` (stereo unspecified) yielded a melting point of 106 to 108 °C.

In the case of `CN1CCN(CCSc2nc3ccccc3[nH]2)CC1`, the melting point was in the range of 93 to 95 °C.

Compound `CCCCc1cn(Cc2ccc(-c3ccccc3C(=O)O)cc2)c2ccccc2c1=O` came in with a melting point of 214 °C.

The compound `Nc1ccc(O)c(-c2cccs2)c1` returned a melting point of 130 to 132 °C.

Consider `C/C=C/c1cc(OC)c2oc(-c3ccc(O)c(OC)c3)c(C)c2c1`, for which the melting point is 132 to 133 °C.

`CCOc1nc2cccc(C(=O)OC)c2n1Cc1ccc(-c2ccccc2C(=O)OC)cc1` registered a melting point of 112 to 113 °C.

For `CCCN(CCO)C(=O)c1ccc(C(=O)N2CCN(c3ncccc3NC(C)C)CC2)cc1`, the melting point fell in the range of 79 to 82 °C.

`Cc1cccc(-c2[nH]c(C(C)C)nc2-c2ccc(F)c(-c3c[nH]cn3)c2)n1` registered a melting point of 268 to 270 °C.

For `O=P(O)(c1ccccc1)c1ccc(S(=O)(=O)c2ccccc2)cc1`, the melting point was 220 to 224 °C.

In the case of `O=C(O)CCCCCOc1ccc(OCc2ccccc2)cc1`, the melting point is 100 to 101 °C.

`CCn1cc(C(=O)O)c(=O)c2c(F)c(F)c(F)c(F)c21` had a melting point of 229 to 230 °C.

Regarding `Cn1ncc2c1CCC(=CO)C2=O`, the melting point lay within 93 to 95 °C.

Take `O=C(c1ccccc1)c1cccc2c1CCC2C(=O)NO` (stereo unspecified): the melting point came out at 160 °C.

Compound `COc1ccc([C@@H]2[C@@H](CCCBr)C(=O)N2c2ccc(OC)cc2)cc1` had a melting point of 70 to 73 °C.

In turn, `O=Cc1cc([N+](=O)[O-])cc(Cl)c1S` gave a melting point of 84 to 89 °C.

Regarding `O=Cc1ccc(CN2C(=O)c3ccccc3C2=O)c(Cl)c1`, the melting point fell in the range of 123 to 126 °C.

For `CCc1ccc(Cn2cc(-c3ccc(OC)cc3)ccc2=O)cn1`, the melting point came to 130 °C.

`CS(=O)(=O)c1ccc(-n2nc(C(F)(F)F)cc2-c2ccc(-c3cocn3)cc2)cc1F` displayed a melting point of 164 to 166 °C.

`N#CCn1nc(-c2c(-c3ccccc3)nn3ccccc23)ccc1=O`: the melting point is 218 to 219 °C.

For `CS(=O)(=O)c1cc([N+](=O)[O-])ccc1OC(F)(F)F`, the melting point lay within 102 to 104 °C.

`CC(C)(C(=O)O)n1c(=O)[nH]c2cc(F)c(F)cc2c1=O` yielded a melting point of 242 to 244 °C.

Regarding `Cc1nc(-c2cccc(-n3cnc4cc(I)ccc43)c2)cs1`, the melting point is 163 to 164 °C.

For the compound `O=C1Nc2ccccc2OC1c1ccccc1` (stereo unspecified), the melting point is 146 °C.

The compound `CCc1cc(Nc2ccc(NC(=O)c3ccccc3S(=O)(=O)O)cc2)n2nccc2n1` displayed a melting point of over 320 °C.

`CC1COCc2nc3c(N)nc4cc(CCC(=O)N(C)C)ccc4c3n21` (stereo unspecified): the melting point was in the range of 235 to 237 °C.

`CCCCCCCNC(=O)N(C)c1cccc(-c2ccc(C=C(C)C(=O)O)cc2)c1` gave a melting point of 79 °C.

In the case of `CC(C)Cn1c(=O)n(C)c(=O)c2c(SCCCO)n(Cc3cccc4ccccc34)nc21`, the melting point amounted to 135 °C.

`Cc1cc(CN2N=C(C(F)(F)C(F)(F)F)NC2(O)C(C)(C)C)ccc1[N+](=O)[O-]` (stereo unspecified) displayed a melting point of 125 to 128 °C.

Take `c1cncc(-c2ccc3nnn(Cc4ccc5ncccc5c4)c3n2)c1`: the melting point lay in the range of 208 to 210 °C.

Take `Cc1ccccc1OCC(O)CNCCOc1ccc(C(N)=O)cn1` (stereo unspecified): the melting point was in the range of 139 to 141 °C.

`CC(O)Cc1ccc(-c2ccc3cc(C(=O)O)ccc3c2)cc1C12CC3CC(CC(C3)C1)C2` (stereo unspecified) showed a melting point of 282 °C.

`CCCOc1ccc2c(c1)C(=O)c1cccc(OC)c1-2`: the melting point is 96 to 97 °C.

As for `COc1c([N+](=O)[O-])cc(C(C)(C)C)cc1[N+](=O)[O-]`, the melting point is over 75 °C.

As for `N#Cc1cc(N2CCCCC2)ccc1N`, the melting point lay within 87 to 88 °C.

Compound `CCC1Cc2cc(N)ccc2C1=O` (stereo unspecified) returned a melting point of 106 to 108 °C.

Turning to `CCOC(=O)C1=C(COCCn2c(C)nc(C)c2C)NC2=C(C(=O)OC2)C1c1ccccc1Cl` (stereo unspecified), the melting point lay in the range of 215 to 217 °C.

For `CN1N=C2C(=Cc3ccccc3)CN(C(=O)CCCl)CC2C1c1ccccc1` (stereo unspecified), the melting point was in the range of 134 to 136 °C.

As to `Cc1cc(NC2=NN(c3ccccc3)CC2)cc(C)c1O`, the melting point is 154 to 158 °C.

Compound `O=C1c2ccccc2C(=O)c2oc(-c3cccs3)nc21` registered a melting point of over 260 °C.

`O=Cc1ccc2cccnc2c1` came in with a melting point of 56 °C.

As for `CC(=O)Cc1ccc(SCCCBr)cc1`, the melting point lay within 40 to 41 °C.

`CCOC(=O)Cc1ccc(-c2ccc(OC)cc2)cc1`: the melting point was found to be 68 °C.

As to `Cn1c([N+](=O)[O-])cnc1C1=NO[C@@H]2CCCCCCCCCC[C@@H]12` (relative stereo), the melting point was 121 to 122 °C.

On to `COc1ccc(C(C)=O)c2cccc(S(=O)(=O)N(C)C)c12`, for which the melting point lay in the range of 124 to 127 °C.

Compound `CC(=O)N1CCN(c2ccc(Nc3nccc(-c4sc(-c5cccs5)nc4C)n3)cc2)CC1` yielded a melting point of 134 to 136 °C.

`CN1C(=O)CC[C@]2(C)c3ccc(-c4ccc(Cl)c(Cl)c4)cc3CC[C@@H]12`: the melting point was 129 to 135 °C.

Compound `c1ccc(N2CCNc3nc4ccccc4n3CC2)cc1` had a melting point of 156 to 158 °C.

In turn, `CCOC(=O)c1cn(Cc2ccc(OCc3ccccc3)cc2)nc1OCc1ccc(OCc2ccccc2)cc1` returned a melting point of 124 to 125 °C.

Compound `CC(C)CC[C@H](O)[C@H](CC1CCCCC1)NC(=O)[C@H](Cc1c[nH]cn1)NC(=O)OC(C)(C)C` displayed a melting point of 96 to 100 °C.

`c1ccc(COc2ccc(Nc3ccccn3)cc2)cc1` yielded a melting point of 110 to 112 °C.

Consider `CCn1c2ccc(C(=O)c3ccc(-n4c5ccccc5c5ccccc54)cc3)cc2c2cc(C(C)=NO)ccc21`, for which the melting point was 151 to 154 °C.
